Five compounds from patent US4560685A, “2-Piperazino-pteridines useful as antithrombotics and antimetastatics” (Dr. Karl Thomae Gesellschaft mit beschrankter Haftung, priority 1984, dated 1985) can be followed below.

This data set has as its system mice. Put plainly: Approximate acute toxicity after oral administration. Type of data set: in vivo. The settings on record: single dose, observation period 14 days; for animals died: 250 mg/kg. Here is the method:
The approximate acute toxicity of the test compounds was determined on groups of 5 mice after oral administration of a single dose (observation period: 14 days).

Turning to `CN(C)c1nc2nc(N3CCNCC3)nc(N(C)C)c2nc1Cl` [B, 6-chloro-4,7-bis(dimethylamino)-2-piperazino-pteridine], the animals died is recorded as 0 out of 5 and the Approximate acute toxicity is listed as more than 250 mg/kg.
Taken in the same sequence, the figures for `CN(C)c1nc2nc(N3CCNCC3)nc(N(C)C)c2nc1SCc1ccccc1` [C, 6-benzylthio-4,7-bis-(dimethylamino)-2-piperazino-pteridine] were 0 out of 5 and more than 250 mg/kg.
In the same order, the values of `c1ccc(CSc2nc3c(N4CCOCC4)nc(N4CCNCC4)nc3nc2N2CCOCC2)cc1` [Compound A, 6-benzylthio-4,7-dimorpholino-2-piperazino-pteridine] are 0 out of 5 and more than 250 mg/kg.
In the same order, the values of `CSc1nc2c(N3CC[S+]([O-])CC3)nc(N3CCNCC3)nc2nc1NCc1ccccc1` [D, 7-benzylamino-6-methylthio-4-(1-oxido-thiomorpholino)-2-piperazino-pteridine] are 0 out of 5 and more than 250 mg/kg.
`CN(C)c1nc(N2CCNCC2)nc2nc(NCc3ccccc3)c(Cl)nc12` [E, 6-chloro-2-piperazino-4-dimethylamino-7-benzylamino-pteridine]: the animals died is listed as 0 out of 5 and the Approximate acute toxicity is reported as more than 250 mg/kg.
